Laboratory results as given in article PMC10824666 (Nature Cancer, 2023).
Like-named read-outs stand apart in the source and are kept apart here.

What was measured:
Test in all cases: biochemical
Set-up in all cases: Eurofins DiscoverX kinase panel, competitive binding assay at 1 uM, percent of DMSO control
Conditions in all cases: competitive binding, percent of DMSO control
CDK2 = CDK2 (Homo sapiens, UniProt P24941)
Method in brief: (§1)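 Single-point profiling at 1 µM compound in a competition-binding format against 96 kinases, read out as POC relative to control; n = 1.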

PKD2 = molecular target: T1, PKD2 (Homo sapiens, UniProt Q9BZL6)
T1 construct: gene PRKD2
T1 sequence (Q9BZL6 1-878): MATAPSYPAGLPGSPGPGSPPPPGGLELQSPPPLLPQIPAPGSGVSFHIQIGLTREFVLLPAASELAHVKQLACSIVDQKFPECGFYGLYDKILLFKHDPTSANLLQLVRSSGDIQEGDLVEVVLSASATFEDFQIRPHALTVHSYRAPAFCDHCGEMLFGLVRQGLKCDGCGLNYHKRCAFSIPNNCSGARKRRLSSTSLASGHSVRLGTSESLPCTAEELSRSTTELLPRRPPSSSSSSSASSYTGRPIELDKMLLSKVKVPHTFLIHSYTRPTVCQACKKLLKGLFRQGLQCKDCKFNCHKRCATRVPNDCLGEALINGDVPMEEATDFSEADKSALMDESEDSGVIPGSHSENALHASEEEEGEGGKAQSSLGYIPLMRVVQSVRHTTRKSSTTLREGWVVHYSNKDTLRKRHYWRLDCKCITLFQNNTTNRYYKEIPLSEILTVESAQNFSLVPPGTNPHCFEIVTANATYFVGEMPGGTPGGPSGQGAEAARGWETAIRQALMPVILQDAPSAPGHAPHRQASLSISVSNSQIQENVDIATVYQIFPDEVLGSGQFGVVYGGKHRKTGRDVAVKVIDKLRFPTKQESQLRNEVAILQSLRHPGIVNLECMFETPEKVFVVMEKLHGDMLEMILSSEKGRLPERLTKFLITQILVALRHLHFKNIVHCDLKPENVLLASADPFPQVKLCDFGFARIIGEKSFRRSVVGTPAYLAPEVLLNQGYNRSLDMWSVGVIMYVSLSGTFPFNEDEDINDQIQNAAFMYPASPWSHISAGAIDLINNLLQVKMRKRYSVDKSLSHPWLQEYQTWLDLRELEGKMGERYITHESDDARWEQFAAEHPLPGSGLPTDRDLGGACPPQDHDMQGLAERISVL
Method in brief: as §1

TGFBR2 = TGFBR2 (Homo sapiens, UniProt P37173)
Method in brief: as §1

[1] = read-out: Kinome Profiling performed by Eurofins DiscoverX / AM-1882, 1.0 µM / POC
[2] = read-out: Kinome Profiling performed by Eurofins DiscoverX / AM-0277, 1.0 µM / POC
[3] = read-out: Kinome Profiling performed by Eurofins DiscoverX / AM-5308, 1.0 µM / POC

TGFBR2, sequence (P37173 whole entry): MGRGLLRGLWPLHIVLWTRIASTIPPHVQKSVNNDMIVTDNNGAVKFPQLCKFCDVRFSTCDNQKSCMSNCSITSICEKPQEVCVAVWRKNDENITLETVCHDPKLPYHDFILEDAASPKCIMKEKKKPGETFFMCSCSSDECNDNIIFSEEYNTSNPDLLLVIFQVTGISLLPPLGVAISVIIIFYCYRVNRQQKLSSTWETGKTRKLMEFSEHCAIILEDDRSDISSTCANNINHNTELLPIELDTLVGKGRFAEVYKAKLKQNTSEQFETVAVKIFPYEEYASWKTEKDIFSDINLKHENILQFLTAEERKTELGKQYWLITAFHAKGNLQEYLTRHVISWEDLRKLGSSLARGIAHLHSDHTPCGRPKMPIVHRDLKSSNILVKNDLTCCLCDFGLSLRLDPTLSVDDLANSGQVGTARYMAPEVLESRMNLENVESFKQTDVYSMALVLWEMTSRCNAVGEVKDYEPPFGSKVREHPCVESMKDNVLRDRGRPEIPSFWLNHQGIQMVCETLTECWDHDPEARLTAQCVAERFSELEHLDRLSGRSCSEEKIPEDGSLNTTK

## CC(C)(C)NS(=O)(=O)c1cccc(NC(=O)c2ccc(S(=O)(=O)NC(C)(C)C)cc2N2CCC3(CC2)CC3)c1 [AM-1882]
CDK2; [1]
  remaining activity at 1 µM: 100%
PKD2; [1]
  remaining activity at 1 µM: 64.5%
TGFBR2; [1]
  remaining activity at 1 µM: 99.5%

## CC(C)(CO)Nc1ccc(C(=O)Nc2cccc(S(=O)(=O)C3CCCC3)c2)c(N2CCC3(CC2)CC3)n1 [AM-0277]
CDK2; [2]
  remaining activity at 1 µM: 97%
PKD2; [2]
  remaining activity at 1 µM: 100%
TGFBR2; [2]
  remaining activity at 1 µM: 75%

## C[C@@H]1CN(c2cccc(NC(=O)c3ccc(NS(=O)(=O)CCO)cc3N3CCC4(CC3)CC4)n2)CCO1 [AM-5308]
CDK2; [3]
  remaining activity at 1 µM: 94.5%
PKD2; [3]
  remaining activity at 1 µM: 100%
TGFBR2; [3]
  remaining activity at 1 µM: 100%
